This note sets out measurements from ChEMBL document CHEMBL5329206 (Bioorg Med Chem, 2023).

Series [1] addresses Replicase polyprotein 1ab (Severe acute respiratory syndrome coronavirus 2) (UniProt P0DTD1). Nature of the series: Inhibition of SARS-CoV-2 MPro using protease substrate at 1 uM preincubated with enzyme for 10 mins followed by substrate addition and measured after 5 mins by FRET based assay. Conditions: time 15.0 min.
Series [2] has the same target. Nature of the series: Inhibition of SARS-CoV-2 MPro using protease substrate at 5 uM preincubated with enzyme for 10 mins followed by substrate addition and measured after 5 mins in presence of 4 mM DTT by FRET based assay. To be noted: time 15.0 min.
Series [3] shares this target. Nature of the series: Inhibition of SARS-CoV-2 MPro using protease substrate at 5 uM preincubated with enzyme for 10 mins followed by substrate addition and measured after 5 mins by FRET based assay. To be noted: time 15.0 min.
Series [4] has as its target Replicase polyprotein 1ab (Severe acute respiratory syndrome coronavirus 2, UniProt P0DTD1). Nature of the series: Inhibition of SARS-CoV-2 MPro using protease substrate preincubated with enzyme for 10 mins followed by substrate addition and measured after 5 mins by FRET based assay.
In series [5] the target is T1, Cathepsin K (Homo sapiens, UniProt P43235).
T1 sequence (P43235 whole entry): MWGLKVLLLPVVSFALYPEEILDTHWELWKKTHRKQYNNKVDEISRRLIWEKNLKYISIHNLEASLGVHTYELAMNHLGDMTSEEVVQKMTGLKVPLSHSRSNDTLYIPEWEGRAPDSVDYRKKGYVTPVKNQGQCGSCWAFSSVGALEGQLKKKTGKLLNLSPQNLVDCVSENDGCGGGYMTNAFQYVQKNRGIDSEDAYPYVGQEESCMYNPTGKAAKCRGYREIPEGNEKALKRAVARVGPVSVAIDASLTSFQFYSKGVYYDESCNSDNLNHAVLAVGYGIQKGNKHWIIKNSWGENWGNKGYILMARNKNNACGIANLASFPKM
Put plainly: Inhibition of human Cathepsin K at 20 uM measured after 30 mins by fluorescence based microplate reader analysis relative to control. The class given is toxicity. To be noted: human Cathepsin K enzyme.

The target of the next series is Cathepsin B (Homo sapiens, UniProt P07858). Put plainly: Inhibition of human Cathepsin B at 20 uM measured after 30 mins by fluorescence based microplate reader analysis relative to control. The class given is toxicity. To be noted: human Cathepsin B enzyme.
For series [6], the system named is SARS-CoV-2. Nature of the series: Antiviral activity against SARS-CoV-2 infected in African green monkey Vero E6 cells assessed as inhibition of viral infection preincubated for 1 hr followed by incubation in methylcellulose medium for 25 to 26 hrs by TrueBlue based EliSpot analysis. The format is functional, organism-based. Conditions: Severe acute respiratory syndrome coronavirus 2, Vero C1008.

Series [7] in a line: Cytotoxicity against African green monkey Vero E6 cells assessed as cell growth inhibition measured after 48 hrs by CCK8 assay. Conditions: chlorocebus sabaeus. The class given is toxicity, cell-based, Vero C1008.
For series [8], the target named is T1, Cathepsin K. Nature of the series: Inhibition of human Cathepsin K measured after 30 mins by fluorescence based microplate reader analysis relative to control. The format is toxicity.
Series [9] concerns SARS-CoV-2. Nature of the series: Antiviral activity against SARS-CoV-2. The format is functional, organism-based. Conditions: Severe acute respiratory syndrome coronavirus 2.
Series [10] has as its target Replicase polyprotein 1ab (Severe acute respiratory syndrome coronavirus 2) (UniProt P0DTD1). Nature of the series: Covalent inhibition of SARS-Cov-2 MPro using protease substrate at 1 uM preincubated with enzyme for 5 to 80 mins followed by substrate addition and measured every 10s for 10 mins by FRET based assay. To be noted: time 15-90 min, TDE = time-dependent effect.

Active and inactive are the calls of the source. No cut-off for these calls is given here. Where a SMILES comes first, the peptide text is derived from it.

Usually inhibition stands for the relative decrease from the control value, in per cent. Regarding `CS(=O)(=O)Nc1ccc(C(=O)Nc2ccc(-n3[se]c4ccccc4c3=O)cc2)cc1`, the inhibition entry in series [1] was “inactive”.
What is called IC50 is the midpoint of a concentration-inhibition curve. `O=c1c2ccccc2[se]n1-c1ccc(NS(=O)(=O)C2CC2)cc1`: the inhibition result in series [2] is “inactive”. Also, the inhibition in [1] stood at 89.7%. For the same compound, in [3], the inhibition result is “Active”. Also, 528 nM corresponded to half-maximal inhibition in [4] (IC50).
With `O=C(Nc1ccc(-n2[se]c3ccccc3c2=O)cc1)C1CC1`, the inhibition in [1] was 95.5%. It took 490 nM to reach half-maximal inhibition in series [4] (IC50).
Regarding `O=c1c2ccccc2[se]n1C1CCN(S(=O)(=O)c2cccs2)CC1`, the inhibition in series [1] is 67.8%.
Still for that read-out and setting: for `O=c1c2ccccc2[se]n1C1CCN(S(=O)(=O)c2cccc(Cl)c2)CC1` the value was 24.7%.
In the case of `NS(=O)(=O)c1ccc(C(=O)N2CCC(n3[se]c4ccccc4c3=O)CC2)cc1`, in series [1], the inhibition was 88.3%. In series [4], the IC50 was 550 nM.
For the compound `O=c1c2ccccc2[se]n1Cc1ccc2[nH]ccc2c1`, the inhibition in series [1] came out at 32.6%.
Take `CCOC(=O)c1ccc(-n2[se]c3ccccc3c2=O)cc1`: the inhibition at 0.5 h, 20 µM against Cathepsin K [5] amounted to 5%. In addition, in series [1], the inhibition came to 68.4%.
Take `O=C(Nc1ccc2c(=O)n(-c3ccccc3)[se]c2c1)c1cccs1`: the inhibition in series [1] was 38.9%.
As to `CC(=O)N[C@@H](CC(C)C)C(=O)N[C@H](C(=O)N[C@H](C=O)CCCCN)C(C)C` (Ac-Leu-Val-Lys-aldehyde), at Cathepsin B, the inhibition at 0.5 h, 20 µM came to 99%.
The term EC50 denotes the concentration needed to bring the measured effect to its halfway point. The CC50 is the concentration giving 50% cytotoxicity. Take `O=c1c2ccccc2[se]n1C1CCN(S(=O)(=O)c2cccnc2)CC1`: the 50% effective concentration (EC50) in the series on SARS-CoV-2 [6] was above 13300 nM. Besides, the CC50 at 48 h in series [7] was determined as 13300 nM. The half-maximal inhibitory concentration (IC50) at Cathepsin K [8] is above 20000 nM; in series [4] it was 268 nM. Further, the inhibition in series [1] is 101%. Also, the inhibition at 0.5 h, 20 µM against Cathepsin B is 4%.
For the compound `O=C(NC1CCCC1)C(=O)[C@H](C[C@@H]1CCNC1=O)NC(=O)[C@@H]1[C@H]2CCC[C@H]2CN1C(=O)[C@@H](NC(=O)C(F)(F)F)C1CCCCC1`, the response in the series on SARS-CoV-2 [9] was half-maximal at 95 nM (EC50).
In the case of `O=c1c2ccccc2[se]n1C1CCNCC1`, in [1], the inhibition was found to be 57.5%.
`O=c1c2ccccc2[se]n1-c1ccccc1` [EBSELEN]: the EC50 in the series on SARS-CoV-2 [6] was 3780 nM. Also, the values for the inhibition at 0.5 h, 20 µM against Cathepsin K [5] and on Cathepsin B were 38% and 62%, respectively. For the same compound, the inhibition entry in series [2] is “inactive”. The CC50 at 48 h in series [7] came out at 70500 nM. This compound showed an IC50 against Cathepsin K [8] above 20000 nM. The inhibition in series [1] was 88.3%; in series [10] it was “Tde”. For the same compound, in [3], the inhibition entry is “Active”.
As for `O=c1c2ccccc2[se]n1Cc1ccncc1`, in the series with SARS-CoV-2 [6], the EC50 is above 20000 nM. For the same compound, the inhibition at 0.5 h, 20 µM was 42% against Cathepsin K [5] and 87% against Cathepsin B. Moreover, in series [2], the inhibition result was “inactive”. For the same compound, the CC50 at 48 h in series [7] is 55700 nM. In addition, the values for the IC50 (on Cathepsin K [8]; in [4]) were above 20000 nM and 287 nM, respectively. In addition, in series [1], the inhibition stood at 97.4%. The inhibition result in series [3] is “Active”.
With `Nc1ccc2c(=O)n(-c3ccccc3)[se]c2c1`, the inhibition result in series [2] was “inactive”. Further, in series [1], the inhibition is 87%. Moreover, in series [3], the inhibition result is “Active”. In [4], this compound gave an IC50 of 322 nM.
For the compound `CN(C)S(=O)(=O)Nc1ccc(-n2[se]c3ccccc3c2=O)cc1`, the EC50 with SARS-CoV-2 [6] is above 9910 nM. For the same compound, the inhibition entry in [2] was “inactive”. For the same compound, the CC50 at 48 h in series [7] worked out at 9910 nM. In addition, the inhibition was 91.8% in series [1] and “Tde” in series [10]. In addition, in series [3], the inhibition result was “Active”. Moreover, in series [4], the IC50 was found to be 233 nM.
As to `O=c1c2ccccc2[se]n1Cc1cccnc1`, the inhibition in series [1] stood at 80.6%. This compound also showed an IC50 in series [4] of 459 nM.
Turning to `O=c1c2ccccc2[se]n1C1CCN(S(=O)(=O)C2CC2)CC1`, in the series on SARS-CoV-2 [6], the EC50 was above 20000 nM. Also, the CC50 at 48 h in series [7] stood at 27500 nM. The inhibition in series [1] amounted to 96.2%. Also, in [4], the IC50 came to 356 nM.
Take `CC(C)(F)C[C@H](N[C@@H](c1ccc(-c2ccc(S(C)(=O)=O)cc2)cc1)C(F)(F)F)C(=O)NC1(C#N)CC1` [ODANACATIB]: at Cathepsin K [5], the inhibition at 0.5 h, 20 µM stood at 96%.
For `CC(C)(C)OC(=O)Nc1ccc(-n2[se]c3ccccc3c2=O)cc1`, the inhibition in series [1] turned out to be 32.1%.
For the compound `CC(C)(C)OC(=O)N1CCC(n2[se]c3ccccc3c2=O)CC1`, the inhibition in [1] was found to be 85.2%. In addition, in series [4], the IC50 was 417 nM.
Consider `O=c1c2ccccc2[se]n1Cc1ccc2ccccc2c1`, for which, in series [1], the inhibition was found to be 34.6%.
The same measure, in the same setting: for `O=C(OCc1ccccc1)N1CCC(n2[se]c3ccccc3c2=O)CC1` the value was 71.2%; for `O=c1c2cc([N+](=O)[O-])ccc2[se]n1-c1ccccc1`, 18.8%.
With `O=c1c2ccccc2[se]n1Cc1ccccc1`, the EC50 in the series on SARS-CoV-2 [6] is 8010 nM. Besides, the CC50 at 48 h in series [7] was above 100000 nM. Moreover, the inhibition in series [1] stood at 95.5%. In series [4], this compound registered an IC50 of 364 nM.
For the compound `O=c1c2ccc([N+](=O)[O-])cc2[se]n1-c1ccccc1`, the inhibition in [1] came out at 49.2%.
On the same count and under the same terms, as for `Nc1ccc2[se]n(-c3ccccc3)c(=O)c2c1`, the figure is 21.8%.
